Patent publication US20250152553A1, “CARBAMOTHIOATE, AND CARBAMODITHIOATE DERIVATIVES OF MDMA, MDA OR ITS OPTICALLY ACTIVE (R)- OR (S)-MDMA AND MDA ISOMERS” (EmpathBio, Inc., priority 2023, published 2025)
In brackets after ≈: the same amount, converted by molar mass.

Legend:
Solubility in FaSSIF = type: physicochemical; settings: read-out: SOL (μM) FaSSIF
[1] = Chemical stability in PBS pH 6.5; type: physicochemical; settings: for half-life: PBS pH 6.5; for Remaining Percentage (%) 0 min: PBS pH 6.5, 0 min; for Remaining Percentage (%) 30 min: PBS pH 6.5, 30 min; for Remaining Percentage (%) 60 min: PBS pH 6.5, 60 min; for Remaining Percentage (%) 120 min: PBS pH 6.5, 120 min; for Remaining Percentage (%) 240 min: PBS pH 6.5, 240 min
[2] = Plasma stability in mouse plasma; type: in vitro ADME; settings: for half-life at 1 μM: test concentration 1 μM

Row | Structure (SMILES) | solubility (Solubility in FaSSIF) [µM] | half-life [1] [h] | Remaining Percentage (%) 0 min [1] [%] | Remaining Percentage (%) 30 min [1] [%] | Remaining Percentage (%) 60 min [1] [%] | Remaining Percentage (%) 120 min [1] [%] | Remaining Percentage (%) 240 min [1] [%] | Remaining Percentages (%) 0 min ([2]; 1 μM) [%] | Remaining Percentages (%) 15 min ([2]; 1 μM) [%] | Remaining Percentages (%) 30 min ([2]; 1 μM) [%] | Remaining Percentages (%) 60 min ([2]; 1 μM) [%] | Remaining Percentages (%) 120 min ([2]; 1 μM) [%] | half-life at 1 μM [2] [h] | Remaining Percentages (%) 0 min ([2]; 5 μM) [%] | Remaining Percentages (%) 30 min ([2]; 5 μM) [%] | Remaining Percentages (%) 120 min ([2]; 5 μM) [%] | half-life at 5 μM ([2]; test concentration 5 μM (control)) [h]
1 | COC(=S)NC(C)Cc1ccc2c(c1)OCO2 (stereo not drawn) [Prodrug 2, O-methyl (1-(benzo[d][1,3]dioxol-5-yl)propan-2-yl)carbamothioate] | 279 (≈ 70.8 µg/mL) | > 17.1 | 100.00 | 105.00 | 100.45 | 102.27 | 105.00 | 100 | 101.54 | 99.62 | 96.35 | 91.94 | > 8.52 | – | – | – | –
2 | CCSC(=S)NC(C)Cc1ccc2c(c1)OCO2 (stereo not drawn) [Prodrug 12, ethyl (1-(benzo[d][1,3]dioxol-5-yl)propan-2-yl)carbamodithioate] | 252 (≈ 71.3 µg/mL) | > 17.1 | 100.00 | 102.94 | 99.30 | 104.13 | 100.98 | 100 | 101.19 | 92.04 | 92.28 | 89.25 | > 8.52 | – | – | – | –
3 | O=C(O)Cc1ccccc1Nc1c(Cl)cccc1Cl [Diclofenac, reference compound] | – | 0.695 | 100.00 | 60.68 | 35.44 | 13.15 | 1.85 | – | – | – | – | – | – | 100 | 58.97 | 10.45 | 0.594
4 | CCOC(=S)N(C)C(C)Cc1ccc2c(c1)OCO2 (stereo not drawn) [Prodrug 3, O-ethyl (1-(benzo[d][1,3]dioxol-5-yl)propan-2-yl)(methyl)carbamothioate] | 131 (≈ 36.9 µg/mL) | > 17.1 | 100.00 | 100.73 | 95.33 | 99.99 | 91.16 | 100 | 106.31 | 97.30 | 97.75 | 96.85 | > 8.52 | – | – | – | –
5 | CCSC(=O)N(C)C(C)Cc1ccc2c(c1)OCO2 (stereo not drawn) [Prodrug 7, S-ethyl (1-(benzo[d][1,3]dioxol-5-yl)propan-2-yl)(methyl)carbamothioate] | 291 (≈ 82 µg/mL) | > 17.1 | 100.00 | 99.17 | 97.73 | 95.86 | 103.73 | 100 | 110.62 | 111.95 | 113.27 | 102.65 | > 8.52 | – | – | – | –
6 | CSC(=S)NC(C)Cc1ccc2c(c1)OCO2 (stereo not drawn) [Prodrug 10, methyl (1-(benzo[d][1,3]dioxol-5-yl)propan-2-yl)carbamodithioate] | 306 (≈ 82.5 µg/mL) | > 17.1 | 100.00 | 96.55 | 105.17 | 109.86 | 113.62 | 100 | 100.89 | 98.00 | 100.22 | 89.09 | > 8.52 | – | – | – | –
7 | CCSC(=O)NC(C)Cc1ccc2c(c1)OCO2 (stereo not drawn) [Prodrug 8, S-ethyl (1-(benzo[d][1,3]dioxol-5-yl)propan-2-yl)carbamothioate] | 288 (≈ 77.1 µg/mL) | > 17.1 | 100.00 | 113.02 | 100.82 | 102.82 | 114.28 | 100 | 110.30 | 106.34 | 105.81 | 101.19 | > 8.52 | – | – | – | –
8 | CSC(=S)N(C)C(C)Cc1ccc2c(c1)OCO2 (stereo not drawn) [Prodrug 9, methyl (1-(benzo[d][1,3]dioxol-5-yl)propan-2-yl)(methyl)carbamodithioate] | 30.4 (≈ 8.63 µg/mL) | > 17.1 | 100.00 | 97.22 | 96.84 | 107.55 | 89.55 | 100 | 101.32 | 96.64 | 98.79 | 97.14 | > 8.52 | – | – | – | –
9 | CCOC(=S)NC(C)Cc1ccc2c(c1)OCO2 (stereo not drawn) [Prodrug 4, O-ethyl (1-(benzo[d][1,3]dioxol-5-yl)propan-2-yl)carbamothioate] | 60.3 (≈ 16.1 µg/mL) | > 17.1 | 100.00 | 103.44 | 100.85 | 94.76 | 94.28 | 100 | 100.00 | 100.28 | 97.80 | 95.32 | > 8.52 | – | – | – | –
10 | CCSC(=S)N(C)C(C)Cc1ccc2c(c1)OCO2 (stereo not drawn) [Prodrug 11, ethyl (1-(benzo[d][1,3]dioxol-5-yl)propan-2-yl)(methyl)carbamodithioate] | 63.7 (≈ 19 µg/mL) | > 17.1 | 100.00 | 95.01 | 93.41 | 96.45 | 94.38 | 100 | 97.92 | 101.25 | 94.58 | 94.17 | > 8.52 | – | – | – | –
11 | CSC(=O)NC(C)Cc1ccc2c(c1)OCO2 (stereo not drawn) [Prodrug 6, S-methyl (1-(benzo[d][1,3]dioxol-5-yl)propan-2-yl)carbamothioate] | 293 (≈ 74.1 µg/mL) | > 17.1 | 100.00 | 93.08 | 91.55 | 88.38 | 88.38 | 100 | 99.73 | 103.77 | 102.16 | 90.30 | > 8.52 | – | – | – | –
12 | CSC(=O)N(C)C(C)Cc1ccc2c(c1)OCO2 (stereo not drawn) [Prodrug 5, S-methyl (1-(benzo[d][1,3]dioxol-5-yl)propan-2-yl)(methyl)carbamothioate] | 308 (≈ 82.3 µg/mL) | > 17.1 | 100.00 | 91.67 | 104.03 | 96.42 | 91.92 | 100 | 100.78 | 98.96 | 100.78 | 94.52 | > 8.52 | – | – | – | –
